In assay [1] the test system is Plasmodium falciparum. Put plainly: Antimalarial activity against Plasmodium falciparum infected in mouse assessed as mouse survival at 20 mg/kg, ip, qd administered 4 days post infection for 3 days measured after 6 days relative to control. Set-up: dose 20 mg/kg. The assay is classed as functional, organism-based.
Assay [2] deals with Plasmodium falciparum. Put plainly: Antimalarial activity against Plasmodium falciparum infected in mouse assessed as parasitemia at 20 mg/kg, ip, qd administered 4 days post infection for 3 days measured after 6 days (Rvb =8.7+/-1.4 %). The class given is functional.
Assay [3] concerns Plasmodium falciparum. Put plainly: Antimalarial activity against Plasmodium falciparum infected in mouse assessed as mouse survival at 20 mg/kg, ip, qd administered 5 days post infection for 3 days measured after 6 days relative to control. The assay is classed as functional, organism-based. Set-up: dose 20 mg/kg.
Assay [4] relates to Plasmodium falciparum. Put plainly: Antimalarial activity against Plasmodium falciparum infected in mouse assessed as parasitemia at 100 mg/kg, ip, qd administered 5 days post infection for 3 days measured after 6 days (Rvb =8.3+/-1.3 %). The assay is classed as functional.
Assay [5] has as its system Plasmodium falciparum. Put plainly: Antimalarial activity against Plasmodium falciparum infected in mouse assessed as parasitemia at 20 mg/kg, ip, qd administered 5 days post infection for 3 days measured after 6 days (Rvb =8.3+/-1.3 %). The assay is classed as functional.
Assay [6] has as its system Plasmodium falciparum. Put plainly: Antimalarial activity against Plasmodium falciparum infected in mouse assessed as mouse survival at 100 mg/kg, ip, qd administered 5 days post infection for 3 days measured after 6 days relative to control. The class given is functional, organism-based. Details: dose 100 mg/kg.
For assay [7], the system named is Plasmodium falciparum. Put plainly: Antimalarial activity against Plasmodium falciparum infected in mouse assessed as mouse survival at 40 mg/kg, ip, qd administered 5 days post infection for 3 days measured after 6 days relative to control. The assay is classed as functional, organism-based. Set-up: dose 40 mg/kg.
The test system of assay [8] is Plasmodium falciparum. Put plainly: Antimalarial activity against Plasmodium falciparum infected in mouse assessed as mouse survival at 200 mg/kg, ip, qd administered 5 days post infection for 3 days measured after 6 days relative to control. The class given is functional, organism-based. Set-up: dose 200 mg/kg.
For assay [9], the system named is Plasmodium falciparum. Put plainly: Antimalarial activity against Plasmodium falciparum infected in mouse assessed as parasitemia at 40 mg/kg, ip, qd administered 5 days post infection for 3 days measured after 6 days (Rvb =9.9+/-2.2 %). The assay is classed as functional.
Assay [10] concerns Plasmodium falciparum. Put plainly: Antimalarial activity against Plasmodium falciparum infected in mouse assessed as parasitemia at 200 mg/kg, ip, qd administered 5 days post infection for 3 days measured after 6 days (Rvb =9.9+/-2.2 %). The assay is classed as functional.
Assay [11] deals with Plasmodium falciparum. Put plainly: Antimalarial activity against Plasmodium falciparum infected in mouse assessed as parasitemia at 40 mg/kg, ip, qd administered 3 days post infection for 6 days measured after 6 days (Rvb =8.0+/-1.6 %). The assay is classed as functional.
Assay [12] relates to Plasmodium falciparum. Put plainly: Antimalarial activity against Plasmodium falciparum infected in mouse assessed as mouse survival at 40 mg/kg, ip, qd administered 3 days post infection for 6 days measured after 6 days relative to control. The class given is functional, organism-based. Details: dose 40 mg/kg.

The source made the active and inactive calls. No cut-off for these calls is given here.

For the compound `CC(C)c1c(C(=O)Nc2ccccc2)c(-c2ccccc2)c(-c2ccc(F)cc2)n1CC[C@@H](O)C[C@@H](O)CC(=O)O` [ATORVASTATIN], the Survival entry in the assay on Plasmodium falciparum [1] is “inactive”. Moreover, in the assay with Plasmodium falciparum [2], the Activity is listed as 9.5%.

Regarding `CC(C)n1c(/C=C/C(O)CC(O)CC(=O)O)c(-c2ccc(F)cc2)c2ccccc21` (configuration not stated) [FLUVASTATIN], the Survival entry in the assay with Plasmodium falciparum [3] and in the assay with Plasmodium falciparum [6] was “inactive” in each case. The Activity in the assay with Plasmodium falciparum [4] and with Plasmodium falciparum [5] was 7.4% in each case.

As to `CC[C@H](C)C(=O)O[C@H]1C[C@H](O)C=C2C=C[C@H](C)[C@H](CC[C@@H](O)C[C@@H](O)CC(=O)O)[C@H]21` [PRAVASTATIN], the Survival entry in the assay on Plasmodium falciparum [7] and in the assay with Plasmodium falciparum [8] was “inactive” each time. In addition, the Activity in the assay on Plasmodium falciparum [9] is given as 11.5%; with Plasmodium falciparum [10], 11.8%.

As for `CCC(C)(C)C(=O)O[C@H]1C[C@@H](C)C=C2C=C[C@H](C)[C@H](CC[C@@H]3C[C@@H](O)CC(=O)O3)[C@H]21` [SIMVASTATIN], in the assay with Plasmodium falciparum [11], the Activity stood at 8.5%. In addition, the Survival result with Plasmodium falciparum [12] is “inactive”.

The values are drawn from ChEMBL document CHEMBL1671634, “Statins alone are ineffective in cerebral malaria but potentiate artesunate” (2008).
